In one series the test system is MCF-7 cells. The experiment in a line: MCF-7 cell proliferation inhibition. The class given is cell-based. The note with it: read-out: IC50 for MCF-7 cell proliferation inhibition. The procedure:
EMEM medium was purchased from Wisent, and fetal bovine serum was purchased from Biosera. Promega CellTiter-Glo reagent. MCF-7 cells were purchased from the Cell Bank of Type Culture Collection Committee of the Chinese Academy of Sciences. Nivo5 multi-marker analyzer (PerkinElmer).
MCF-7 cells were seeded in a white 384-well plate at 600 cells/[…] suspension/well. The plate was incubated in a CO2 incubator overnight.
On the day of treatment, a day 0 plate coated under the same conditions the day before was taken, centrifuged to remove the medium, added with 25 microliters of Promega CellTiter-Glo reagent to each well, and incubated at room temperature for 10 minutes to stabilize the luminescence signal. Measures were read by PerkinElmer Nivo multi-marker analyzer as an initial value for 0% inhibition.
The test compounds were serially 5-fold diluted to the 10th concentration with a multichannel pipette, i.e., from 2 millimoles to […], and the experiments were set up in duplicate. 47.5 microliters of medium was added to the intermediate plate, 2.5 microliters of serially diluted compounds were transferred to corresponding wells of the intermediate plate, and after mixing, 5 microliters of the mixture per well was transferred to the cell plate. The plate was incubated in a CO2 incubator for 6 days.
After 6 days of co-incubation with the compounds, the plate was centrifuged to remove the medium, added with 25 microliters of Promega CellTiter-Glo reagent to each well, and incubated at room temperature for 10 minutes to stabilize the luminescence signal. Measures were read by PerkinElmer Nivo multi-marker analyzer.
The original data was converted into inhibition rate by the formula: % inhibition=((RFUCmpd−AVER(RFUNeg.Ctrl))/((AVER(RFUDay0)−AVER(RFUNeg.Ctrl))×100%. Curve fitting was conducted and IC50 was calculated.

Series [1] is described as follows: Pharmacokinetics study in mice (cassette). The class given is in vivo. The note with it: female, Balb/c, plasma, mouse cassette PK. The text has this:
Objective: To determine the drug concentration in the plasma of the mice at different times after intravenous and oral administration of the test compounds by LC/MS/MS using female Balb/c mice as the test animals. To investigate the pharmacokinetic performance of the test compounds in mice and to evaluate the pharmacokinetic characteristics.
Test animals: 4 healthy female Balb/c mice were divided into 2 groups according to the principle of similar weight, 2 in the IV group and 2 in the PO group. The animals were purchased from Shanghai Lingchang Biotechnology Co., Ltd.
(§1) IV group: Appropriate amounts of compounds were weighed respectively, prepared into 2 mg/mL solutions, then mixed to give a 0.5 mg/mL solution, which was stirred and ultrasonicated until a clear state. The vehicle was 15% HP-b-CD.
(§2) PO group: An appropriate amount of the IV group solution was taken and diluted to 0.4 mg/mL with 15% HP-b-CD.
(§3) Administration: After fasting overnight, the IV group was administered intravenously, and the dose of the test compound was 1 mg/kg; the PO group was administered intragastrically, and the dose of the test compound was 2 mg/kg.
(§4) Procedures: For IV group, 30 μL of blood was collected from the saphenous vein of the female Balb/c mice at 0.0833, 0.25, 0.5, 1, 2, 4, 8, and 24 hours post-dose, and placed in a commercial anticoagulant tube with EDTA-K2 added in advance. For PO group, 30 μL of blood was collected from the saphenous vein of the female Balb/c mice at 0.25, 0.5, 1, 2, 4, 8, 12 and 24 hours post-dose, and placed in a commercial anticoagulant tube with EDTA-K2 added in advance. The blood samples were centrifuged (3,200 g, 4° C., 10 minutes) to give plasma samples, which was transferred to a pre-cooled centrifuge tube, frozen in dry ice, and stored in an ultra-low temperature freezer at −60° C. or lower until the LC-MS/MS analysis. The animals were given free access to food 4 hours after the administration. LC/MS/MS method was used to determine the content of the test compounds in the plasma of mice after intravenous and oral administration. The linear range of the method is 2.00-2000 nM.

A short description of series [2]: Pharmacokinetics study in rats (cassette). The class given is in vivo. To be noted: female, SD, plasma, rat cassette PK.
Excerpt: Experimental objective: To determine the drug concentration in the plasma of the rats at different times after intravenous and oral administration of the test compounds by LC/MS/MS using female SD rats as the test animals. To investigate the pharmacokinetic performance of the test compounds in rats and to evaluate the pharmacokinetic characteristics.
Test animals: 4 healthy female SD rats were divided into 2 groups according to according to the principle of similar weight, 2 in the IV group and 2 in the PO group. Animal used in this study were purchased from Beijing Vital River Laboratory Animal Technology Co., Ltd.
as §1, §2, §3
as §4, with “200” for “30”, “jugular” for “saphenous”, “SD rats” for “Balb/c mice”

In series [3] the test system is MCF-7 breast cancer cell xenograft. The experiment in a line: In vivo efficacy, MCF-7 breast cancer xenograft. The arrangement: species or system BALB/c nude mice. The note with it: for Tumor volume 27 days after grouping: Mean ± SEM; for T/C / TGI: day 27. On the procedure: This study was intended to evaluate the anti-tumor efficacy of compounds of the present application in MCF-7 breast cancer cell xenograft BALB/c nude mice (provided by Beijing Vital River Laboratory Animal Technology Co., Ltd., with the number of test animals in each experimental group being 7).
Three days before the xenograft, the mice were inoculated with 0.36 mg of 60-day sustained-release estrogen tablets subcutaneously on the left shoulder. In the logarithmic growth phase, the cells were collected and counted. The cell density was adjusted to 10×10^7 cells/mL, added with an equal volume of Matrigel and mixed for inoculation. Each mouse was xenografted subcutaneously with 0.2 mL of MCF-7 tumor cell suspension (10×10^6) on the right shoulder. On the 14th day after tumor cell xenograft, the mice were grouped and administered the drugs once a day, with an average tumor volume of 200 mm^3 and a body weight of 22.0-23.0 g. Tumor volume and body weight were measured twice a week after grouping. The tumor growth rate (T/C) and tumor growth inhibition rate (TGI) were calculated for the last tumor measurement data on the 27th day after grouping, and the anti-tumor efficacy of the compound was evaluated by TGI (%) or relative tumor proliferation rate T/C (%). TGI (%), reflects the tumor growth inhibition rate. TGI (%)=[(1-(average tumor volume at the end of treatment in a treatment group—average tumor volume at the start of treatment in the treatment group))/(average tumor volume at the end of treatment in the solvent control group—average tumor volume at the start of treatment in the solvent control group)]×100%, relative tumor proliferation rate T/C (%)=TRTV/CRTV×100% (TRTV: average RTV in the treatment group; CRTV: average RTV in the negative control group). Relative tumor volume (RTV) was calculated based on the results of tumor measurement. The formula is RTV=Vt/V0, wherein V0 is the tumor volume measured when grouping and administering (i.e., D0), and Vt is the tumor volume at a certain measurement, the data of TRTV and CRTV should be measured on the same day.

Setting [4] is: Homo sapiens, MCF7, 144 h, 6 days incubation, CellTiter-Glo.
The mark [5] stands for this setting: iv, i.v. 1 mg/kg, read-out: Vdss.
Setting [6] is: 6 days incubation, CellTiter-Glo.

Molecules are shown by their SMILES. Counter-ions that a name gives are not always drawn. Like-named read-outs stand apart in the source and are kept apart here.

Turning to `CC/C(=C(/c1ccc(OCCNC/C=C/C(=O)N(C)C)nc1)c1[nH]c2ccccc2c1Cl)c1ccccc1C#N` [Compound 2], the IC50 in the series with MCF-7 cells (setting [4]) was 0.64 nM.
Still for that read-out and setting: with `CC/C(=C(/c1ccc(OCCNC/C=C/C(=O)N(C)C)nc1)c1[nH]c2ccccc2c1Cl)c1ccccc1` [Compound 3] the figure was 0.87 nM.
In series [1] (iv, i.v. 1 mg/kg), `CC/C(=C(/c1ccc(OCCNC/C=C/C(=O)N(C)C)nc1)c1[nH]c2ccccc2c1Cl)c1cccc(OC)c1` [Compound 4 monohydrochloride] had an AUC(0-t) of 1.1 µM·h, a clearance of 26 mL/min/kg and a half-life of 1.85 h. Besides, in series [1] (setting [5]), the Vd was 3.45 L/kg. Also, in series [1] (po, p.o. 2 mg/kg), the AUC(0-t) was 0.503 µM·h, the highest level (Cmax) was 159 nM, the Tmax was 0.25 h and the bioavailability was 22.9%. The same compound gave a half-life in series [1] (po, p.o. 2 mg/kg) of 3.25 h. In series [2] (iv, i.v. 1 mg/kg), the AUC(0-t) came to 1.9 µM·h, the clearance amounted to 15.8 mL/min/kg and the half-life was 3.98 h. Moreover, the Vd in series [2] (setting [5]) amounted to 4.86 L/kg. In series [2] (po, p.o. 2 mg/kg), the AUC(0-t) is 1.84 µM·h, the Cmax was found to be 233 nM, the Tmax turned out to be 2 h and the bioavailability was determined as 48.4%. In series [2] (po, p.o. 2 mg/kg), this compound had a half-life of 3.26 h. Besides, in series [3] (3 mg/kg once a day), the “Tumor volume 27 days after grouping” value was found to be 396 ± 58 mm^3, the T/C worked out at 28.74% and the TGI is on record as 83%. Also, in series [3] (10 mg/kg once a day), the “Tumor volume 27 days after grouping” value amounted to 124 ± 5 mm^3, the T/C is on record as 9.32% and the TGI worked out at 106%.
Take `CC/C(=C(/c1ccc(OCCNC/C=C/C(=O)N(C)C)nc1)c1[nH]c2ccccc2c1Cl)c1cccc(OC)c1` [Compound 4]: the IC50 in the series with MCF-7 cells (setting [4]) was found to be 0.61 nM.
As to `CC/C(=C(/c1ccc(OCCN(C/C=C/C(=O)N(C)C)C(=O)OC(C)(C)C)nc1)c1[nH]c2ncccc2c1Cl)c1ccccc1` [Compound 5], in the series on MCF-7 cells (setting [6]), the IC50 was determined as 4.74 nM.
Take `C=CC(=O)NCCOc1ccc(/C(=C(/CC)c2ccc(F)cc2Cl)c2[nH]c3ccccc3c2Cl)cn1` [Compound 7]: the IC50 in the series on MCF-7 cells (setting [4]) amounted to 4.25 nM.
Turning to `CN(C)C(=O)/C=C/CNCCOc1ccc(/C(=C(/CC(F)(F)F)c2c(F)cncc2F)c2[nH]c3ccccc3c2Cl)cn1` [Compound 8], the IC50 in the series on MCF-7 cells (setting [6]) worked out at 2.72 nM.
For `CN(C)C(=O)/C=C/CNCCOc1ccc(/C(=C(/CC(F)(F)F)c2ccc(F)cc2Cl)c2[nH]c3ccccc3c2Cl)cn1` [Compound 9], the IC50 in the series with MCF-7 cells (setting [4]) amounted to 2.36 nM.
The same measure, in the same setting: in the case of `CN(C)C(=O)/C=C/CNCCOc1ccc(/C(=C(/CC(F)(F)F)c2ccccc2C#N)c2[nH]c3ccccc3c2Cl)cn1` [Compound 10] it was 2.11 nM; in that of `CC/C(=C(/c1ccc(OCCNC/C=C/C(=O)N(C)C)nc1)c1cc2ccccc2[nH]1)c1ccc(F)cc1Cl` [Compound 11], 4.13 nM.
With `CC/C(=C(/c1ccc(OCCNC/C=C/C(=O)N(C)C)nc1)c1[nH]c2ccccc2c1Cl)c1ccccc1Cl` [Compound 14], in the series on MCF-7 cells (setting [4]), the IC50 was found to be 1 nM.
The same measure, in the same setting: in the case of `CC/C(=C(/c1ccc(OCCNC/C=C/C(=O)N(C)C)nc1)c1[nH]c2ccccc2c1Cl)c1ccc(Cl)cc1Cl` [Compound 15] it was 1.6 nM; in that of `CC/C(=C(/c1ccc(OCCNC/C=C/C(=O)N(C)C)nc1)c1[nH]c2ccccc2c1Cl)c1csc(C)c1` [Compound 16], 1.11 nM.
Take `CC/C(=C(/c1ccc(OCCNC/C=C/C(=O)N(C)C)nc1)c1[nH]c2ccccc2c1Cl)c1ccc(F)cc1F` [Compound 17]: the IC50 in the series on MCF-7 cells (setting [4]) is 2.67 nM.
For `CC/C(=C(/c1ccc(OCCNC/C=C/C(=O)N(C)C)nc1)c1[nH]c2ccccc2c1Cl)c1cccc(C)c1` [Compound 18], the IC50 in the series with MCF-7 cells (setting [4]) came out at 2.35 nM.
The same measure, in the same setting: with `CC/C(=C(/c1ccc(OCCNC/C=C/C(=O)N(C)C)nc1F)c1[nH]c2ccccc2c1Cl)c1cccc(OC)c1` [Compound 19] the figure was 2.75 nM; with `CC/C(=C(/c1ccc(OCCNC/C=C/C(=O)N(C)C)nc1)c1[nH]c2ccccc2c1C)c1cccc(OC)c1` [Compound 20], 1.46 nM.
Same read-out and setting: with `CC/C(=C(/c1ccc(OCCNC/C=C/C(=O)N(C)C)cc1)c1[nH]c2ccccc2c1Cl)c1cccc(OC)c1` [Compound 21] the figure was 2.21 nM.
Consider `CC/C(=C(/c1ccc(OCCNC/C=C/C(=O)N2CCC2)nc1)c1[nH]c2ccccc2c1Cl)c1ccccc1` [Compound 26], for which the IC50 in the series on MCF-7 cells (Homo sapiens, MCF7, 144 h) was 3.82 nM.
Consider `CC/C(=C(/c1ccc(OCCNC/C=C/C(=O)N2CC(CF)C2)nc1)c1[nH]c2ccccc2c1Cl)c1ccccc1` [Compound 27], for which, in the series with MCF-7 cells (setting [4]), the IC50 was 0.49 nM.

Values taken from patent US12221432B2, “Estrogen receptor antagonist” (CHIA TAI TIANQING PHARMACEUTICAL GROUP CO., LTD., priority 2018, dated 2025).
